We go through four compounds from publication PMC9424819, “Evaluation of commonly used cardiovascular drugs in inhibiting vonoprazan metabolism in vitro and in vivo” (Frontiers in Pharmacology, 2022).

Series [1] relates to vonoprazan metabolism in rat liver microsomes (RLMs). Kind of series: Inhibition of vonoprazan metabolism (MI formation) in rat liver microsome incubation. Type of series: in vitro ADME. How it is done:
(§1) Eleven common-used cardiovascular drugs were chosen to detect their possible inhibition effect on vonoprazan. […] After preincubation at 37°C for 5 min in a shaking water bath, 20 mM NADPH was added to initiate the reaction, which lasted 30 min and was stopped with […] of acetonitrile. The mixture was vortexed after adding 20 µL of diazepam and then centrifugated at 13,000 rpm for 5 min. A 2 µL aliquot of the final supernatant was injected into the UPLC–MS/MS system for analysis. The relative inhibition was calculated according to the relative MI decrease compared to the control (vonoprazan naturally metabolized in RLMs). […] The same procedures were performed. Then, an inhibition mechanism experiment was conducted for further exploration. […] Both inhibitor and substrate were added to the incubation system described above. Every concentration match had three parallels. The MI concentration was detected using the same conditions to depict the Lineweaver–Burk and Dixon plots.
(§2) The concentrations of vonoprazan and MI that were detected by UPLC-MS/MS were applied to GraphPad 7.0 (GraphPad Software Inc., United States) to calculate IC50 and depict plasma concentration-time curves and Lineweaver–Burk and Dixon plots. The pharmacokinetic parameters of the compartment analysis were calculated using DAS (version 3.2.8; The People’s Hospital of Lishui) and expressed as mean ± standard deviation. The t-test was carried out by SPSS 25.0 (SPSS Inc., United States) to compare those parameters. p value < 0.05 was considered statistically significant.
On the technique in general: Liver microsomes are a subcellular fraction often used to study metabolism.

Series [2] is described as follows: Pharmacokinetics of vonoprazan and MI in rats with or without inhibitor pretreatment. The class given is in vivo, Sprague-Dawley rats. To be noted: for AUC(0-inf) / AUC(0-t) / Cmax / Tmax / CL/F / MRT last / MRT inf / Vd/F / half-life: male, Sprague-Dawley, rat, plasma, po, 2 mg/kg; for CL/F: read-out: CLz/F (converted); for MRT last: read-out: MRT(0-t); for MRT inf: read-out: MRT(0-∞); for Vd/F: read-out: Vz/F; for half-life: read-out: t1/2z (converted). The method, then: The Experimental Animal Research Center of Wenzhou Medical University provided specific pathogen-free (SPF) Sprague-Dawley rats (male, 350 ± 20 g, 3 months old). This research was conducted following the principles of the Basel Declaration. […] After one week of rearing in the new environment and fasting overnight, the drug could be gavaged.
Rats were randomly divided into three groups (n = 6). […] After 7 days, on the seventh day, all groups had gavage at a single dosage of 2 mg/kg vonoprazan.
Centrifugation at 4,000 rpm for 10 min was performed to obtain 100 µL of plasma, to which was added 200 µL of acetonitrile and 20 µL of diazepam IS. After vortex mixing and centrifugation at 13,000 rpm for 5 min, 5 µL of supernatant was obtained for analysis by UPLC-MS/MS.
as §2

Series [3] concerns vonoprazan metabolism (MI formation) in rat liver microsomes. Briefly: Inhibition of vonoprazan metabolism (MI formation) in rat liver microsome incubation. Type of series: in vitro ADME. The note with it: rat, rat liver microsomes, pH 7.4, probe vonoprazan (10 µM), metabolite MI measured; RLMs, 10 µM vonoprazan, MI formation. How it is done:
as §1, §2

The subject of series [4] is vonoprazan metabolism (MI formation) in human liver microsomes. Kind of series: in vitro. The note with it: pH 7.4.
[5] abbreviates: amlodipine-pretreated group vs control group, rats.
The mark [6] stands for this setting: Amlodipine group (10 mg/kg amlodipine 7 days), single gavage 2 mg/kg vonoprazan, rat plasma.
The mark [7] stands for this setting: Control group (CMC-Na 7 days), single gavage 2 mg/kg vonoprazan, rat plasma.

Where a name gives a salt, the structure may show the parent alone. Read-outs that look alike come from different tables or passages of the source.

As for `COc1ccc([C@@H]2Sc3ccccc3N(CCN(C)C)C(=O)[C@@H]2OC(C)=O)cc1` [Diltiazem, diltiazem hydrochloride], in series [1] (RLMs, roughly 100 µM drug), the “inhibition effect on vonoprazan in preliminary in vitro evaluation” value is recorded as “slightly increased inhibition effects”.

For the compound `O=C(O)c1cc(-c2ccccc2F)n(S(=O)(=O)c2cccnc2)c1` [MI, 5-(2-fluorophenyl)-1-(pyridin-3-ylsulfonyl)-1H-pyrrole-3-carboxylic acid], in series [2] (setting [5]), the “fall of CLz/F” value is reported as 38%, the “fall of Vz/F” value was determined as 57%, the “increase of AUC” value was 1.6 fold and the “increase of MRT (0-t)” value was 1.4 fold. The “increase of MRT (0-∞)” value in series [2] (setting [5]) worked out at 1.2 fold. Besides, in series [2] (setting [6]), the area under the curve AUC(0-inf) worked out at 2580 ± 450 ng·h/mL, the AUC(0-t) stood at 2550 ± 459 ng·h/mL, the Cmax turned out to be 836 ± 176 ng/mL and the time to peak (Tmax) came to 1.58 ± 0.67 h. In addition, in series [2] (setting [6]), the CL/F was 13.2 mL/min/kg, the MRT last stood at 2.92 ± 0.19 h, the MRT inf amounted to 3.11 ± 0.31 h and the Vd/F was found to be 2.25 ± 1.11 L/kg. The half-life in series [2] (setting [6]) is 1.91 ± 0.76 h. Further, in series [2] (setting [7]), the total exposure AUC(0-inf) amounted to 1570 ± 189 ng·h/mL, the AUC(0-t) came out at 1540 ± 175 ng·h/mL, the maximum concentration (Cmax) is 766 ± 85.1 ng/mL and the Tmax was found to be 1 h. In series [2] (setting [7]), the CL/F is 21.5 mL/min/kg, the MRT last worked out at 2.13 ± 0.14 h, the MRT inf came out at 2.44 ± 0.26 h and the Vd/F amounted to 5.28 ± 2.5 L/kg. Also, the half-life in series [2] (setting [7]) was 2.91 ± 1.51 h.

As to `CCOC(=O)C1=C(COCCN)NC(C)=C(C(=O)OC)C1c1ccccc1Cl` (centres unmarked) [Amlodipine, amlodipine besylate], the half-maximal inhibitory concentration (IC50) at 30 min in series [3] worked out at 17 µM; in series [4] it was 7.2 µM. Moreover, the “inhibition mechanism on vonoprazan metabolism” value in series [1] (RLMs and HLMs, Lineweaver–Burk and Dixon plots) is “primarily competitive with some non-competitive inhibition”.

As to `CNCc1cc(-c2ccccc2F)n(S(=O)(=O)c2cccnc2)c1` [Vonoprazan, vonoprazan], in series [2] (setting [6]), the “MRT(0-∞)” value was 3.06 ± 0.38 h, the AUC(0-inf) is 59 ± 20.9 ng·h/mL, the AUC(0-t) came out at 58.5 ± 21.1 ng·h/mL and the peak concentration (Cmax) turned out to be 19 ± 8.3 ng/mL. Moreover, in series [2] (setting [6]), the Tmax turned out to be 1.67 ± 0.52 h, the CL/F was 614 mL/min/kg, the MRT last amounted to 2.93 ± 0.3 h and the Vd/F turned out to be 95.5 ± 51.3 L/kg. In addition, the half-life in series [2] (setting [6]) is 1.73 ± 0.65 h. In series [2] (setting [5]), the “decrease of CLz/F” value was “approximately by half”, the “decrease of Vz/F” value is “approximately by half”, the “increase of AUC” value was “nearly twice” and the “increase of Cmax” value is “nearly twice”. For the same compound, the “increase of Tmax” value in series [2] (setting [5]) is “nearly twice”. In addition, in series [2] (setting [7]), the AUC(0-inf) is 29.1 ± 5.31 ng·h/mL, the AUC(0-t) came to 28.8 ± 5.14 ng·h/mL, the Cmax was 10.2 ± 1.88 ng/mL and the time to peak (Tmax) was 0.75 ± 0.27 h. Besides, in series [2] (setting [7]), the CL/F was 1180 mL/min/kg, the MRT last amounted to 2.72 ± 0.09 h, the MRT inf is 2.87 ± 0.17 h and the Vd/F amounted to 190 ± 41.6 L/kg. Also, the half-life in series [2] (setting [7]) was 1.89 ± 0.37 h.

For orientation: AUC(0-inf) means total exposure, with the tail of the curve extrapolated. As usually defined, the AUC(0-t) is exposure summed from dosing to a finite time, without extrapolation to infinity. By Cmax is commonly meant the highest concentration seen after dosing. A word on the Tmax: it is the time at which the peak concentration occurs. One may read the IC50 as the midpoint of a concentration-inhibition curve.
